Molecular target: human orexin-2 receptor (Homo sapiens (Human), UniProt O43614)
Assay: FLIPR Ca2+ Flux Assay, orexin-2 receptor antagonism in CHO cells
Format: cell-based
Conditions: CHO cells expressing the human orexin-2 receptor; agonist 70 pM Ala-6,12 orexin-A; read-out: hOX2 FLIPR IC50
Procedure, shortened: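 CHO cells expressing rat OX1R or human OX2R, Fluo-4AM loaded, given compounds for 5 min, then challenged with 70 pM Ala-6,12 human orexin-A in HBSS/HEPES/BSA/probenecid, pH 7.4. FLIPR calcium fluorescence recorded 5 min; peak height versus agonist-alone gives IC50.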

human orexin-2 receptor, sequence (O43614 whole entry): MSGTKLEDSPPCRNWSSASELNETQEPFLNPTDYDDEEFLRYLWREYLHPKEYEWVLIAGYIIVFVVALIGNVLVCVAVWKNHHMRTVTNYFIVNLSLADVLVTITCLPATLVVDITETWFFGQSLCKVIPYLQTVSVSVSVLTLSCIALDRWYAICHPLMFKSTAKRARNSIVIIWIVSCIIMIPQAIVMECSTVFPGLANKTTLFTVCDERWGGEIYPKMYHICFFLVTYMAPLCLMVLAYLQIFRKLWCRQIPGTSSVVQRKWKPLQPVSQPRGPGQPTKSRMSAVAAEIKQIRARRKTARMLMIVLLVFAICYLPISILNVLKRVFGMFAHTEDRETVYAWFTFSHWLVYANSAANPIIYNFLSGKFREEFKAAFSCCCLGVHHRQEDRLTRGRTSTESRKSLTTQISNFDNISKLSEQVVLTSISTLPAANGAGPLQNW

| Structure (SMILES) | IC50 |
| --- | --- |
| CC(O)c1cnc2c(O[C@@H]3CC[C@@H](C)N(C(=O)c4ccccc4-n4nccn4)C3)nccn12 (stereo partly drawn) [Example 68, (2-(2H-1,2,3-triazol-2-yl)phenyl)((2R,5R)-5-((3-(1-hydroxyethyl)imidazo[1,2-a]pyrazin-8-yl)oxy)-2-methylpiperidin-1-yl)methanone] | 115 nM |
| C[C@@H]1CC[C@@H](Oc2nccn3nccc23)CN1C(=O)c1ccccc1-n1nccn1 [Example 69, (2-(2H-1,2,3-triazol-2-yl)phenyl)((2R,5R)-2-methyl-5-(pyrazolo[1,5-a]pyrazin-4-yloxy)piperidin-1-yl)methanone] | 26.8 nM |
| C[C@@H]1CC[C@@H](Oc2nccn3nccc23)CN1C(=O)c1ccsc1-n1nccn1 [Example 70, (2-(2H-1,2,3-triazol-2-yl)thiophen-3-yl)((2R,5R)-2-methyl-5-(pyrazolo[1,5-a]pyrazin-4-yloxy)piperidin-1-yl)methanone] | 9.8 nM |
| C[C@@H]1CC[C@@H](Oc2nccn3nccc23)CN1C(=O)c1cscc1-n1nccn1 [Example 71, (4-(2H-1,2,3-triazol-2-yl)thiophen-3-yl)((2R,5R)-2-methyl-5-(pyrazolo[1,5-α]pyrazin-4-yloxy)piperidin-1-yl)methanone] | 16 nM |
| C[C@@H]1CC[C@@H](Oc2nccn3nccc23)CN1C(=O)c1ccccc1C1(C#N)CC1 [Example 72, 1-(2-((2R,5R)-2-methyl-5-(pyrazolo[1,5-α]pyrazin-4-yloxy)piperidine-1-carbonyl)phenyl) cyclopropanecarbonitrile] | 14.3 nM |
| C[C@@H]1CC[C@@H](Oc2nccn3nccc23)CN1C(=O)c1ccc(F)cc1-n1nccn1 [Example 73, (4-fluoro-2-(2H-1,2,3-triazol-2-yl)phenyl)((2R,5R)-2-methyl-5-(pyrazolo[1,5-α]pyrazin-4-yloxy)piperidin-1-yl)methanone] | 14 nM |
| C[C@@H]1CC[C@@H](Oc2nccn3nccc23)CN1C(=O)c1cscc1-c1ncccn1 [Example 74, ((2R,5R)-2-methyl-5-(pyrazolo[1,5-α]pyrazin-4-yloxy)piperidin-1-yl)(4-(pyrimidin-2-yl)thiophen-3-yl) methanone] | 34.4 nM |
| C[C@@H]1CC[C@@H](Oc2nccn3nccc23)CN1C(=O)c1ccsc1-c1ncccn1 [Example 75, ((2R,5R)-2-methyl-5-(pyrazolo[1,5-α]pyrazin-4-yloxy)piperidin-1-yl) (2-(pyrimidin-2-yl)thiophen-3-yl) methanone] | 20.6 nM |
| C[C@@H]1CC[C@@H](Oc2nccn3nccc23)CN1C(=O)c1ccccc1-n1ncnn1 [Example 76, (2-(2H-tetrazol-2-yl)phenyl)((2R,5R)-2-methyl-5-(pyrazolo[1,5-α]pyrazin-4-yloxy)piperidin-1-yl)methanone] | 27.8 nM |
| C[C@@H]1CC[C@@H](Oc2nccn3ccnc23)CN1C(=O)c1ccccc1CS(C)(=O)=O [Example 77, ((2R,5R)-5-(imidazo[1,2-α]pyrazin-8-yloxy)-2-methylpiperidin-1-yl)(2-((methylsulfonyl)methyl)phenyl) methanone] | 27.9 nM |
| C[C@@H]1CC[C@@H](Oc2nccn3nccc23)CN1C(=O)c1nccnc1-c1ccccn1 [Example 78, ((2R,5R)-2-methyl-5-(pyrazolo[1,5-α]pyrazin-4-yloxy)piperidin-1-yl)(3-(pyridin-2-yl)pyrazin-2-yl)methanone] | 59.1 nM |
| COC(=O)c1ccccc1C(=O)N1C[C@H](Oc2nccn3nccc23)CC[C@H]1C [Example 79, methyl 2-((2R,5R)-2-methyl-5-(pyrazolo[1,5-α]pyrazin-4-yloxy)piperidine-1-carbonyl)benzoate] | 44.2 nM |
| C[C@@H]1CC[C@@H](Oc2nccn3nccc23)CN1C(=O)c1nccnc1-n1cccn1 [Example 80, (3-(1H-pyrazol-1-yl)pyrazin-2-yl)((2R,5R)-2-methyl-5-(pyrazolo[1,5-α]pyrazin-4-yloxy)piperidin-1-yl)methanone] | 31.7 nM |
| CCOc1ccccc1C(=O)N1C[C@H](Oc2nccn3nccc23)CC[C@H]1C [Example 81, (2-ethoxyphenyl)((2R,5R)-2-methyl-5-(pyrazolo[1,5-α]pyrazin-4-yloxy)piperidin-1-yl)methanone] | 51.9 nM |
| CCCc1ccccc1C(=O)N1C[C@H](Oc2nccn3nccc23)CC[C@H]1C [Example 82, ((2R,5R)-2-methyl-5-(pyrazolo [1,5-α]pyrazin-4-yloxy)piperidin-1-yl) (2-propylphenyl)methanone] | 33.9 nM |
| CC(C)Oc1ncccc1C(=O)N1C[C@H](Oc2nccn3nccc23)CC[C@H]1C [Example 83, (2-isopropoxypyridin-3-yl)((2R,5R)-2-methyl-5-(pyrazolo[1,5-α]pyrazin-4-yloxy)piperidin-1-yl)methanone] | 49.1 nM |
| CC(C)Oc1ccccc1C(=O)N1C[C@H](Oc2nccn3nccc23)CC[C@H]1C [Example 84, (2-isopropoxyphenyl)((2R,5R)-2-methyl-5-(pyrazolo[1,5-α]pyrazin-4-yloxy)piperidin-1-yl)methanone] | 43.5 nM |

| Structure (SMILES) | IC50 |
| --- | --- |
| C[C@@H]1CC[C@@H](Oc2nccn3nccc23)CN1C(=O)c1ccccc1-c1ncccn1 [Example 85, ((2R,5R)-2-methyl-5-(pyrazolo[1,5-a]pyrazin-4-yloxy)piperidin-1-yl)(2-(pyrimidin-2-yl)phenyl)methanone] | 15.5 nM |
| C[C@@H]1CC[C@@H](Nc2nccn3nccc23)CN1C(=O)c1ccccc1-n1nccn1 [Example 86, (2-(2H-1,2,3-triazol-2-yl)phenyl)((2R,5R)-2-methyl-5-(pyrazolo[1,5-a]pyrazin-4-ylamino)piperidin-1-yl)methanone] | 20.5 nM |
| C[C@@H]1CC[C@@H](Oc2nccn3ncc(Br)c23)CN1C(=O)c1ccccc1-n1nccn1 [Example 88, (2-(2H-1,2,3-triazol-2-yl)phenyl)((2R,5R)-5-((3-bromopyrazolo[1,5-a]pyrazin-4-yl)oxy)-2-methylpiperidin-1-yl)methanone] | 7.3 nM |
| Cc1cnn2ccnc(O[C@@H]3CC[C@@H](C)N(C(=O)c4ccccc4-n4nccn4)C3)c12 [Example 89, (2-(2H-1,2,3-triazol-2-yl)phenyl)((2R,5R)-2-methyl-5-((3-methylpyrazolo[1,5-a]pyrazin-4-yl)oxy)piperidin-1-yl)methanone] | 19.2 nM |
| C[C@@H]1CC[C@@H](Oc2cccn3nccc23)CN1C(=O)c1ccccc1-n1nccn1 [Example 90, (2-(2H-1,2,3-triazol-2-yl)phenyl)((2R,5R)-2-methyl-5-(pyrazolo[1,5-a]pyridin-4-yloxy)piperidin-1-yl)methanone] | 125 nM |
| C[C@@H]1CC[C@@H](Oc2ccnc3ocnc23)CN1C(=O)c1ccccc1-n1nccn1 [Example 91, (2-(2H-1,2,3-triazol-2-yl)phenyl)((2R,5R)-2-methyl-5-(oxazolo[5,4-b]pyridin-7-yloxy)piperidin-1-yl)methanone] | 16.3 nM |
| C[C@@H]1CC[C@@H](Oc2ccnc3ocnc23)CN1C(=O)c1ccccc1-n1ncnn1 [Example 92, (2-(2H-tetrazol-2-yl)phenyl)((2R,5R)-2-methyl-5-(oxazolo [5,4-b]pyridin-7-yloxy)piperidin-1-yl)methanone] | 36.7 nM |
| COC(=O)c1ccccc1C(=O)N1C[C@H](Oc2ccnc3ocnc23)CC[C@H]1C [Example 93, methyl 2-((2R,5R)-2-methyl-5-(oxazolo[5,4-b]pyridin-7-yloxy)piperidine-1-carbonyl)benzoate] | 46.4 nM |
| CCOc1ccccc1C(=O)N1C[C@H](Oc2ccnc3ocnc23)CC[C@H]1C [Example 94, (2-ethoxyphenyl)((2R,5R)-2-methyl-5-(oxazolo[5,4-b]pyridin-7-yloxy)piperidin-1-yl)methanone] | 24.4 nM |
| C[C@@H]1CC[C@@H](Oc2nccc3c2cnn3C)CN1C(=O)c1ccccc1-n1nccn1 [Example 95, (2-(2H-1,2,3-triazol-2-yl)phenyl)((2R,5R)-2-methyl-5-((1-methyl-1H-pyrazolo[4,3-c]pyridin-4-yl)oxy)piperidin-1-yl)methanone] | 17.8 nM |
| C[C@@H]1CC[C@@H](Nc2nccc3c2cnn3C)CN1C(=O)c1ccccc1-n1nccn1 [Example 96, (2-(2H-1,2,3-triazol-2-yl)phenyl)((2R,5R)-2-methyl-5-((1-methyl-1H-pyrazolo[4,3-c]pyridin-4-yl)amino)piperidin-1-yl)methanone] | 60 nM |
| C[C@@H]1CC[C@@H](Nc2nccc3nn(C)cc23)CN1C(=O)c1ccccc1-n1nccn1 [Example 97, (2-(2H-1,2,3-triazol-2-yl)phenyl)((2R,5R)-2-methyl-5-((2-methyl-2H-pyrazolo[4,3-c]pyridin-4-yl)amino)piperidin-1-yl) methanone] | 124 nM |
| C[C@@H]1CC[C@@H](Oc2nccc3c2ncn3C)CN1C(=O)c1ccccc1-n1nccn1 [Example 98, (2-(2H-1,2,3-triazol-2-yl)phenyl)((2R,5R)-2-methyl-5-((1-methyl-1H-imidazo[4,5-c]pyridin-4-yl)oxy)piperidin-1-yl)methanone] | 28.8 nM |
| C[C@@H]1CC[C@@H](Oc2nccc3ncn(C)c23)CN1C(=O)c1ccccc1-n1nccn1 [Example 99, (2-(2H-1,2,3-triazol-2-yl)phenyl)((2R,5R)-2-methyl-5-((3-methyl-3H-imidazo[4,5-c]pyridin-4-yl)oxy)piperidin-1-yl)methanone] | 42.3 nM |
| C[C@@H]1CC[C@@H](Nc2nccc3ncn(C)c23)CN1C(=O)c1ccccc1-n1nccn1 [Example 100, (2-(2H-1,2,3-triazol-2-yl)phenyl)((2R,5R)-2-methyl-5-((3-methyl-3H-imidazo[4,5-c]pyridin-4-yl)amino)piperidin-1-yl)methanone] | 95.8 nM |
| C[C@@H]1CC[C@@H](Nc2nccc3c2ncn3C)CN1C(=O)c1ccccc1-n1nccn1 [Example 101, (2-(2H-1,2,3-triazol-2-yl)phenyl)((2R,5R)-2-methyl-5-((1-methyl-1H-imidazo[4,5-c]pyridin-4-yl)amino)piperidin-1-yl)methanone] | 38.5 nM |

— US10526336B2, “Fused heteroaryl derivatives as orexin receptor antagonists” (Merck Sharp & Dohme Corp., priority 2014, dated 2020)
